Like-named read-outs stand apart in the source and are kept apart here.
Tests used:
Format in all cases: biochemical
[1] = target: T1, papain inactivated by methyl methanethiolsulfonate (Carica papaya, UniProt P00784)
T1 construct: purchased Sigma Chemical Company (St. Louis, Mo.)
T1 sequence (P00784 134-345): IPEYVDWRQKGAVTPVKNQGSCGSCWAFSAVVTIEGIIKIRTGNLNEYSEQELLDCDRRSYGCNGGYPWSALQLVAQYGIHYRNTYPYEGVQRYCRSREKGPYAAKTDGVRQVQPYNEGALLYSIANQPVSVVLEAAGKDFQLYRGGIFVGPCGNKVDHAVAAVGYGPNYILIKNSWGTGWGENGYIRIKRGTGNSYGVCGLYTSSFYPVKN

[2] = target: T2, papain (Carica papaya, UniProt P00784); assay: Background activity of papain inactivated by disulfide-forming reagents; details: compared with papain inactivated with methyl methanethiolsulfonate
T2 construct: purchased Sigma Chemical Company (St. Louis, Mo.)
T2 sequence (P00784 134-345): T1 sequence (P00784 134-345)

[3] = target: T2, papain; assay: Inactivation of activated papain by metal salts; details: metal salt added to equal 1.1× the molar amount of papain
Text: Papain was activated as described above, and the DTT was removed by gel filtration using G-25. Papain was then inactivated by adding a slight molar excess of a mono, di, tri, or tetra valent metal. […] The inhibition by the metals was essentially instantaneous.
This papain was used to assay H2S as follows.

[4] = target: T3, papain inactivated by 2,2′-dithiobis-pyridine (Carica papaya, UniProt P00784)
T3 construct: purchased Sigma Chemical Company (St. Louis, Mo.)
T3 sequence (P00784 134-345): T1 sequence (P00784 134-345)

[5] = target: T4, papain inactivated by 4,4′-dithiobis-pyridine (Carica papaya, UniProt P00784)
T4 construct: purchased Sigma Chemical Company (St. Louis, Mo.)
T4 sequence (P00784 134-345): T1 sequence (P00784 134-345)

[6] = 50 pmoles of DTT added, turnover of 600/min
[7] = compared with papain inhibited by methyl methanethiolsulfonate

## O[C@H](CS)[C@H](O)CS (racemic) [DTT, dithiothreitol]
[1]
  rate of appearance of p-nitroanaline: 0.00026 M/min
[1]; [6]
  amount of active papain in 200 μl: 72 pmol
  concentration of active papain needed to generate product at this rate: 360 nM
[1]; 10 picomoles of DTT added, 1 minute incubation at 25° C., Tris pH 8.0
  Δ A410/min: 0.52 min⁻¹
[1]; 20 picomoles of DTT added, 1 minute incubation at 25° C., Tris pH 8.0
  Δ A410/min: 0.96 min⁻¹
[1]; 50 picomoles of DTT added, 1 minute incubation at 25° C., Tris pH 8.0
  Δ A410/min: 1.9 min⁻¹

## c1ccc(SSc2ccccn2)nc1 [2,2′-dithiobis-pyridine]
[2]
  background level of activity exhibited by the inactivated papain: higher than papain inactivated with methyl methanethiolsulfonate

## c1cc(SSc2ccncc2)ccn1 [4,4′-dithiobis-pyridine]
[2]
  background level of activity exhibited by the inactivated papain: higher than papain inactivated with methyl methanethiolsulfonate

## O=[N+]([O-])[O-].[Ag+] [AgNO3]
[3]
  inhibition of the activity of the activated papain: > 99.5%

## N[C@@H](CS)C(=O)O [Cysteine, cysteine]
[4]; [7]
  efficiency of reactivation of inactivated papain: somewhat more efficient
[5]; [7]
  efficiency of reactivation of inactivated papain: somewhat more efficient
[1]; 20 picomoles added, 1 min incubation
  Δ A410/min: 0.45 min⁻¹
[1]; 50 picomoles added, 1 min incubation
  Δ A410/min: 1.1 min⁻¹
[1]; disulfide linkage inactivated papain
  molecules of papain activated for each molecule of activator: < 1

## [Cl][Hg][Cl] [HgCl2]
[3]
  inhibition of the activity of the activated papain: > 99.9%

## sodium sulfide
[4]
  efficiency of reactivation of inactivated papain: somewhat more efficient
[5]
  efficiency of reactivation of inactivated papain: somewhat more efficient
[1]
  molecules of activator for every one molecule of papain activated: ~5

Source: patent US20100022018A1 (priority 2006, published 2010)
